From PubChem BioAssay AID256 (DTP/NCI, 2004) come the findings set out here.

Several values for one entry are separate records, joined by “and”; a condition that tells them apart may be missing. Identical values can stand only once. Toxic doses and inconclusive results are not listed.

The subject of the assay is CD2F1 mice, L1210 leukemia ip, survival T/C. Kind of assay: NCI In Vivo Anticancer Drug Screen. Data for tumor model L1210 Leukemia (intraperitoneal) in CD2F1 (CDF1) mice. Particulars: higher = longer survival. A digest of the protocol: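 Tumor-bearing mice (transplanted tumor) were split into treated and vehicle control groups, and the measured endpoint of each treated group was divided by that of its vehicle controls.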

Setting [1] is: endpoint: mean survival time, dose: 100.0 mg/kg/injection, schedule: Q04DX003 (ip), vehicle: saline.
Setting [2] is: endpoint: mean survival time, dose: 200.0 mg/kg/injection, schedule: Q04DX003 (ip), vehicle: saline.
The mark [3] stands for this setting: endpoint: mean survival time, dose: 400.0 mg/kg/injection, schedule: Q04DX003 (ip), vehicle: saline.
The mark [4] stands for this setting: endpoint: mean survival time, dose: 100.0 mg/kg/injection, schedule: Q04DX002 (ip), vehicle: saline with Tween-80.
Where [5] appears, read: endpoint: mean survival time, dose: 200.0 mg/kg/injection, schedule: Q04DX002 (ip), vehicle: saline with Tween-80.
Where [6] appears, read: endpoint: mean survival time, dose: 100.0 mg/kg/injection, schedule: Q04DX003 (ip), vehicle: saline with Tween-80.
The mark [7] stands for this setting: endpoint: mean survival time, dose: 200.0 mg/kg/injection, schedule: Q04DX003 (ip), vehicle: saline with Tween-80.
Where [8] appears, read: endpoint: mean survival time, dose: 400.0 mg/kg/injection, schedule: Q04DX003 (ip), vehicle: saline with Tween-80.
Setting [9] is: endpoint: mean survival time, dose: 400.0 mg/kg/injection, schedule: Q01DX009 (ip), vehicle: other.
Where [10] appears, read: endpoint: mean survival time, dose: 100.0 mg/kg/injection, schedule: Q01DX009 (ip), vehicle: saline with Tween-80.
The mark [11] stands for this setting: endpoint: mean survival time, dose: 200.0 mg/kg/injection, schedule: Q01DX009 (ip), vehicle: saline with Tween-80.
[12] abbreviates: endpoint: mean survival time, dose: 400.0 mg/kg/injection, schedule: Q01DX009 (ip), vehicle: saline with Tween-80.

Consider `COc1cc2c(cc1OCc1ccccc1)NC(=O)C2`, for which the T/C (endpoint: mean survival time, dose: 100.0 mg/kg/injection, schedule: Q01DX001 (ip), vehicle: saline with Tween-80) is 91 % of control and the T/C (endpoint: mean survival time, dose: 400.0 mg/kg/injection, schedule: Q01DX001 (ip), vehicle: saline with Tween-80) is 86 % of control.
`O=C(O)C1CCCC(C(=O)O)[N-]1.O=C(O)C1CCCC(C(=O)O)[N-]1.[Cr+2]` (stereo not drawn): the T/C under setting [1] was 104 % of control, the T/C under setting [2] was 101 % of control and the T/C under setting [3] is 104 % of control.
With `NC(=S)N/N=C\c1nccc2c(C(F)(F)F)cccc12`, the T/C under setting [4] is 124 % of control and the T/C under setting [5] is 89 % of control.
`COC1C(O)CC(OC2CC(Oc3cc4cc5c(c(O)c4c(O)c3C)C(=O)[C@@H](OC3CC(OC4CC(OC6CC(C)(O)C(OC(C)=O)C(C)O6)C(O)C(C)O4)C(O)C(C)O3)[C@H]([C@H](OC)C(=O)[C@@H](O)[C@@H](C)O)C5)OC(C)C2OC(C)=O)OC1C` (stereo partly drawn): the T/C reads like this: (endpoint: mean survival time, dose: 62.5 micrograms/kg/injection, schedule: Q01DX009 (ip), vehicle: saline) 120 % of control; (endpoint: mean survival time, dose: 250.0 micrograms/kg/injection, schedule: Q01DX009 (ip), vehicle: saline) 92 % of control.
On to `COC(=O)C1=CNC=C(C(=O)OC)C1c1ccccc1Cl`, for which the T/C is 95 % of control under setting [6], 97 % of control under setting [7] and 89 % of control under setting [8].
In the case of `CCC1(CCC#N)CCC(N)=CC1=O` (stereo not drawn), the T/C reads like this: under setting [6], 104 % of control; under setting [7], 95 % of control; under setting [8], 101 % of control.
`Fc1ccc2nc(C(F)(F)F)cc(Br)c2c1`: the T/C under setting [6] is 103 % of control, the T/C under setting [7] was 98 % of control and the T/C under setting [8] is 101 % of control.
With `Cc1ccc2nc(NC(=O)N(CCCl)N=O)sc2c1`, the T/C is 197 % of control (endpoint: mean survival time, dose: 118.0 mg/kg/injection, schedule: Q01DX009 (ip), vehicle: other); 162 % of control (endpoint: mean survival time, dose: 177.0 mg/kg/injection, schedule: Q01DX001 (ip), vehicle: other); 96 % of control (endpoint: mean survival time, dose: 177.0 mg/kg/injection, schedule: Q01DX009 (ip), vehicle: other); 154 % of control (endpoint: mean survival time, dose: 266.0 mg/kg/injection, schedule: Q01DX001 (ip), vehicle: other); 111 % of control (endpoint: mean survival time, dose: 266.0 mg/kg/injection, schedule: Q01DX009 (ip), vehicle: other); 156 % of control (endpoint: mean survival time, dose: 400.0 mg/kg/injection, schedule: Q01DX001 (ip), vehicle: other). Besides, the T/C runs as follows: under setting [9], 88 % of control; (endpoint: mean survival time, dose: 600.0 mg/kg/injection, schedule: Q01DX001 (ip), vehicle: other) 234 % of control.
With `CCN(CC)c1nc(N(CC)CC)nc(N(CC)CC)n1`, the T/C by setting is: (endpoint: mean survival time, dose: 25.0 mg/kg/injection, schedule: Q01DX009 (ip), vehicle: saline with Tween-80) 93 % of control; (endpoint: mean survival time, dose: 50.0 mg/kg/injection, schedule: Q01DX009 (ip), vehicle: saline with Tween-80) 93 % of control; under setting [10], 95 % of control; under setting [11], 93 % of control.
With `CCOC(=O)Nc1cccc(C(F)(F)F)c1`, the T/C is 97 % of control (endpoint: mean survival time, dose: 100.0 mg/kg/injection, schedule: Q01DX009 (ip), vehicle: other); 101 % of control (endpoint: mean survival time, dose: 200.0 mg/kg/injection, schedule: Q01DX009 (ip), vehicle: other); 107 % of control under setting [9].
As for `CC1=C(/C=C/C(C)=C/C=C/C(C)=C/CO)C(C)(C)CCC1`, the T/C was 102 % of control (endpoint: mean survival time, dose: 150.0 mg/kg/injection, schedule: Q01DX001 (ip), vehicle: alkali diluted with saline); 112 % of control (endpoint: mean survival time, dose: 150.0 mg/kg/injection, schedule: Q01DX001 (ip), vehicle: distilled water + alcohol); 112 % of control (endpoint: mean survival time, dose: 150.0 mg/kg/injection, schedule: Q01DX001 (ip), vehicle: other); 102 % of control (endpoint: mean survival time, dose: 150.0 mg/kg/injection, schedule: Q01DX001 (ip), vehicle: saline); 102 % of control (endpoint: mean survival time, dose: 150.0 mg/kg/injection, schedule: Q11HX001 (ip), vehicle: saline); 99 % of control and 100 % of control (endpoint: mean survival time, dose: 300.0 mg/kg/injection, schedule: Q01DX001 (ip), vehicle: alkali diluted with saline). In addition, the T/C by setting is: (endpoint: mean survival time, dose: 300.0 mg/kg/injection, schedule: Q01DX001 (ip), vehicle: distilled water + alcohol) 108 % of control; (endpoint: mean survival time, dose: 300.0 mg/kg/injection, schedule: Q01DX001 (ip), vehicle: other) 108 % of control; (endpoint: mean survival time, dose: 300.0 mg/kg/injection, schedule: Q01DX001 (ip), vehicle: saline) 103 % of control; (endpoint: mean survival time, dose: 300.0 mg/kg/injection, schedule: Q11HX001 (ip), vehicle: saline) 103 % of control.
Take `CC1=Nc2ccccc2N2C1=CC1=C(C(=O)c3cc4ccccc4cc3C1=O)C2C` (stereo not drawn): the T/C is 101 % of control (endpoint: mean survival time, dose: 12.5 mg/kg/injection, schedule: Q04DX003 (ip), vehicle: saline with Tween-80); 122 % of control (endpoint: mean survival time, dose: 25.0 mg/kg/injection, schedule: Q04DX003 (ip), vehicle: saline with Tween-80); 101 % of control (endpoint: mean survival time, dose: 50.0 mg/kg/injection, schedule: Q04DX003 (ip), vehicle: saline with Tween-80); 94 % of control under setting [2]; 90 % of control under setting [3].
Consider `CSc1ncnc2nn(C3OC(COC(=O)c4ccccc4)C(OC(=O)c4ccccc4)C3OC(=O)c3ccccc3)nc12` (stereo not drawn), for which the T/C was 94 % of control (endpoint: median survival time, dose: 12.5 mg/kg/injection, schedule: Q01DX005 (ip), vehicle: Klucel (hydroxypropylcellulose) (HPC)); 86 % of control (endpoint: median survival time, dose: 25.0 mg/kg/injection, schedule: Q01DX005 (ip), vehicle: Klucel (hydroxypropylcellulose) (HPC)); 87 % of control (endpoint: median survival time, dose: 50.0 mg/kg/injection, schedule: Q01DX005 (ip), vehicle: Klucel (hydroxypropylcellulose) (HPC)); 93 % of control and 95 % of control (endpoint: median survival time, dose: 100.0 mg/kg/injection, schedule: Q01DX005 (ip), vehicle: Klucel (hydroxypropylcellulose) (HPC)); 89 % of control and 95 % of control (endpoint: median survival time, dose: 200.0 mg/kg/injection, schedule: Q01DX005 (ip), vehicle: Klucel (hydroxypropylcellulose) (HPC)); 95 % of control (endpoint: median survival time, dose: 400.0 mg/kg/injection, schedule: Q01DX005 (ip), vehicle: Klucel (hydroxypropylcellulose) (HPC)).
With `OC1(c2cccc(C(F)(F)F)c2)CCN(C2CC2c2ccccc2)CC1` (stereo not drawn), the T/C was 97 % of control under setting [4] and 95 % of control under setting [5].
Take `CC1=CCc2c(c(NS(=O)(=O)c3ccccc3)c3ccccc3c2NS(=O)(=O)c2ccccc2)C1`: the T/C (endpoint: mean survival time, dose: 37.5 mg/kg/injection, schedule: Q01DX001 (ip), vehicle: saline sonified) is 95 % of control; the T/C (endpoint: mean survival time, dose: 75.0 mg/kg/injection, schedule: Q01DX001 (ip), vehicle: saline sonified) is 96 % of control; the T/C (endpoint: mean survival time, dose: 150.0 mg/kg/injection, schedule: Q01DX001 (ip), vehicle: saline sonified) was 89 % of control.
For `COc1ccc(NC(=O)C2C3C=CC(C3)C2C(=O)O)cc1` (stereo not drawn), the T/C reads like this: under setting [6], 98 % of control; under setting [7], 98 % of control.
On to `CCCCCCCCCCCCNC(=O)c1cc[n+](Cc2ccc(Cl)c(Cl)c2)cc1`, for which the T/C reads like this: under setting [6], 103 % of control; under setting [7], 96 % of control; under setting [8], 94 % of control.
On to `CCN(CC)CCCC(C)(NCc1ccccc1)[P+](=O)O` (stereo not drawn), for which the T/C under setting [10] was 90 % of control; the T/C under setting [1] is 96 % of control; the T/C under setting [11] is 86 % of control; the T/C under setting [2] was 91 % of control; the T/C under setting [12] is 94 % of control; the T/C under setting [3] is 94 % of control.
As to `CCCCCCCCCCCCSC#N`, the T/C is, setting by setting: (endpoint: mean survival time, dose: 100.0 mg/kg/injection, schedule: Q04DX002 (ip), vehicle: Klucel (hydroxypropylcellulose) (HPC)) 101 % of control; under setting [4], 96 % of control; (endpoint: mean survival time, dose: 200.0 mg/kg/injection, schedule: Q04DX002 (ip), vehicle: Klucel (hydroxypropylcellulose) (HPC)) 101 % of control; under setting [5], 101 % of control.
As to `[Cl][Hg][CH2]CN1CCCCC1`, the T/C (endpoint: mean survival time, dose: 25.0 mg/kg/injection, schedule: Q04DX002 (ip), vehicle: saline with Tween-80) was 94 % of control; the T/C (endpoint: mean survival time, dose: 50.0 mg/kg/injection, schedule: Q04DX002 (ip), vehicle: saline with Tween-80) is 94 % of control; the T/C under setting [4] was 94 % of control.
In the case of `CC(C)(C)CC(C)(C)c1ccc(OCCOc2ccccc2NC(=O)c2ccc3ccccc3c2O)cc1`, the T/C runs as follows: under setting [10], 94 % of control; under setting [11], 93 % of control; under setting [12], 94 % of control.
For the compound `OC(c1ccccc1)C1(c2ccccc2)OCCO1` (stereo not drawn), the T/C was 95 % of control under setting [10]; 97 % of control under setting [6]; 90 % of control under setting [11]; 92 % of control under setting [7]; 92 % of control under setting [12]; 98 % of control under setting [8].
Consider `CCCCCCCC/C=C\CCCCCCCCNC(C)=O`, for which the T/C is, setting by setting: under setting [10], 89 % of control; under setting [11], 89 % of control.
